How the values were obtained:
[1] = molecular target: Replicase polyprotein 1ab (Severe acute respiratory syndrome-related coronavirus, UniProt P0C6X7); test: Inhibition of SARS-CoV 3C-like protease by FRET based microplate assay
[2] = test system: SARS-CoV; test: Antiviral activity against SARS coronavirus; assay type: functional, organism-based; details: Severe acute respiratory syndrome-related coronavirus

Structure (SMILES)	IC50 [1] [µM]	IC50 [2] [µM]
CCOC(=O)/C=C/[C@H](C[C@@H]1CCNC1=O)NC(=O)[C@@H](CC(=O)[C@@H](NC(=O)c1cc(C)on1)C(C)C)Cc1ccccc1	870	45
CCOC(=O)/C=C/[C@H](C[C@@H]1CCNC1=O)NC(=O)[C@H](CC=C(C)C)CC(=O)[C@@H](NC(=O)c1cc(C)on1)C(C)C	800	70
CCOC(=O)/C=C/[C@H](C[C@@H]1CCNC1=O)NC(=O)[C@H](Cc1ccccc1)NC(=O)[C@@H](NC(=O)[C@H](CO)NC(=O)OC(C)(C)C)C(C)C	15	100
CCOC(=O)/C=C/[C@H](C[C@@H]1CCNC1=O)NC(=O)[C@H](Cc1ccccc1)NC(=O)[C@@H](NC(=O)c1cc(C)on1)C(C)C	300	–
CCOC(=O)/C=C/[C@H](C[C@@H]1CCNC1=O)NC(=O)[C@H](CC=C(C)C)CC(=O)[C@@H](NC(=O)[C@H](CO)NC(=O)OC(C)(C)C)C(C)C	80	75
CCOC(=O)/C=C/[C@H](C[C@@H]1CCNC1=O)NC(=O)[C@H](CC(C)C)NC(=O)[C@@H](NC(=O)c1cc(C)on1)C(C)C	200	–
CCOC(=O)/C=C/[C@H](C[C@@H]1CCNC1=O)NC(=O)[C@H](CC(C)C)NC(=O)[C@@H](NC(=O)[C@H](CO)NC(=O)OC(C)(C)C)C(C)C	10	100
